“And” between values parts separate entries of the source, which are not always exact repeats. Equal entries are not always repeated. Inconclusive results and toxic doses are left out.
Test system: L1210 leukemia ip in BDF1 mice, survival T/C
Assay: NCI In Vivo Anticancer Drug Screen. Data for tumor model L1210 Leukemia (intraperitoneal) in B6D2F1 (BDF1) mice
Details: endpoint: mean survival time, higher = longer survival
Summary of the method: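 Transplantable tumor model; survival measured in treated vs vehicle control mice. Value = treated/control.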

`CC(=O)OCC1OC(n2ncc(=O)[nH]c2=O)C(OC(C)=O)C1OC(C)=O` (stereo unspecified) was tested, and the T/C (dose: 5.3 mg/kg/injection, schedule: Q01DX Z (oral), vehicle: carboxymethylcellulose (CMC)) was 122 % of control, the T/C (dose: 8.0 mg/kg/injection, schedule: Q01DX Z (oral), vehicle: carboxymethylcellulose (CMC)) was 119 % of control and the T/C (dose: 8.0 mg/kg/injection, schedule: Q03HX024 (ip), vehicle: other) was 104 % of control. For the same molecule, the T/C (dose: 8.0 mg/kg/injection, schedule: Q03HX024 (oral), vehicle: other) was 117 % of control, the T/C (dose: 8.8 mg/kg/injection, schedule: Q01DX Z (ip), vehicle: carboxymethylcellulose (CMC)) was 114 % of control and the T/C (dose: 10.0 mg/kg/injection, schedule: Q01DX Z (im), vehicle: carboxymethylcellulose (CMC)) was 121 % of control. The T/C (dose: 11.66 mg/kg/injection, schedule: Q#B X Z (ip), vehicle: carboxymethylcellulose (CMC)) was 111 % of control, the T/C (dose: 13.0 mg/kg/injection, schedule: Q01DX Z (ip), vehicle: carboxymethylcellulose (CMC)) was 118 % of control and the T/C (dose: 15.0 mg/kg/injection, schedule: Q01DX Z (im), vehicle: carboxymethylcellulose (CMC)) was 122 % of control. For the same molecule, the T/C (dose: 15.0 mg/kg/injection, schedule: Q01DX Z (sc), vehicle: carboxymethylcellulose (CMC)) was 116 % of control, the T/C (dose: 16.0 mg/kg/injection, schedule: Q03HX008 (ip), vehicle: other) was 103 % of control and the T/C (dose: 16.0 mg/kg/injection, schedule: Q03HX016 (ip), vehicle: other) was 105 % of control. For the same molecule, the T/C (dose: 18.33 mg/kg/injection, schedule: Q#B X Z (ip), vehicle: carboxymethylcellulose (CMC)) was 113 % of control, the T/C (dose: 20.0 mg/kg/injection, schedule: Q01DX Z (ip), vehicle: carboxymethylcellulose (CMC)) was 120 % of control and the T/C (dose: 23.0 mg/kg/injection, schedule: Q01DX Z (im), vehicle: carboxymethylcellulose (CMC)) was 121 % of control. The T/C (dose: 26.66 mg/kg/injection, schedule: Q#B X Z (ip), vehicle: carboxymethylcellulose (CMC)) was 116 % of control, the T/C (dose: 31.0 mg/kg/injection, schedule: Q01DX Z (ip), vehicle: carboxymethylcellulose (CMC)) was 120 % of control and the T/C (dose: 32.0 mg/kg/injection, schedule: Q03HX008 (ip), vehicle: other) was 102 % of control. The T/C (dose: 32.0 mg/kg/injection, schedule: Q03HX016 (ip), vehicle: other) was 103 % of control, the T/C (dose: 32.0 mg/kg/injection, schedule: Q03HX024 (ip), vehicle: other) was 118 % of control and the T/C (dose: 32.0 mg/kg/injection, schedule: Q03HX024 (oral), vehicle: other) was 122 % of control. The T/C (dose: 61.66 mg/kg/injection, schedule: Q#B X Z (ip), vehicle: carboxymethylcellulose (CMC)) was 120 % of control, the T/C (dose: 62.0 mg/kg/injection, schedule: Q01DX Z (oral), vehicle: carboxymethylcellulose (CMC)) was 157 % of control and the T/C (dose: 64.0 mg/kg/injection, schedule: Q03HX008 (ip), vehicle: other) was 108 % of control. The T/C (dose: 64.0 mg/kg/injection, schedule: Q03HX016 (ip), vehicle: other) was 103 % of control, the T/C (dose: 64.0 mg/kg/injection, schedule: Q04DX003 (ip), vehicle: other) was 103 % of control and the T/C (dose: 64.0 mg/kg/injection, schedule: Q04DX003 (oral), vehicle: other) was 109 % of control. For the same molecule, the T/C (dose: 85.0 mg/kg/injection, schedule: Q01DX Z (im), vehicle: carboxymethylcellulose (CMC)) was 122 % of control, the T/C (dose: 93.33 mg/kg/injection, schedule: Q#B X Z (ip), vehicle: carboxymethylcellulose (CMC)) was 124 % of control and 86 % of control and the T/C (dose: 125.0 mg/kg/injection, schedule: Q01DX001 (ip), vehicle: carboxymethylcellulose (CMC)) was 102 % of control and 107 % of control. For the same molecule, the T/C (dose: 125.0 mg/kg/injection, schedule: Q01DX006 (iv), vehicle: carboxymethylcellulose (CMC)) was 118 % of control, the T/C (dose: 125.0 mg/kg/injection, schedule: Q03DX Z (ip), vehicle: carboxymethylcellulose (CMC)) was 121 % of control and the T/C (dose: 125.0 mg/kg/injection, schedule: Q07DX Z (ip), vehicle: carboxymethylcellulose (CMC)) was 110 % of control. The T/C (dose: 128.0 mg/kg/injection, schedule: Q01DX001 (ip), vehicle: other) was 105 % of control, the T/C (dose: 128.0 mg/kg/injection, schedule: Q03HX008 (ip), vehicle: other) was 109 % of control and the T/C (dose: 128.0 mg/kg/injection, schedule: Q03HX016 (ip), vehicle: other) was 119 % of control. For the same molecule, the T/C (dose: 128.0 mg/kg/injection, schedule: Q04DX003 (ip), vehicle: other) was 110 % of control, the T/C (dose: 128.0 mg/kg/injection, schedule: Q04DX003 (oral), vehicle: other) was 101 % of control and the T/C (dose: 128.0 mg/kg/injection, schedule: Q08DX002 (ip), vehicle: other) was 101 % of control. The T/C (dose: 166.66 mg/kg/injection, schedule: Q#B X Z (ip), vehicle: carboxymethylcellulose (CMC)) was 157 % of control, the T/C (dose: 185.0 mg/kg/injection, schedule: Q01DX Z (sc), vehicle: carboxymethylcellulose (CMC)) was 121 % of control and the T/C (dose: 250.0 mg/kg/injection, schedule: Q01DX001 (ip), vehicle: carboxymethylcellulose (CMC)) was 100 % of control and 103 % of control. For the same molecule, the T/C (dose: 250.0 mg/kg/injection, schedule: Q01DX Z (im), vehicle: carboxymethylcellulose (CMC)) was 161 % of control, the T/C (dose: 250.0 mg/kg/injection, schedule: Q03DX Z (ip), vehicle: carboxymethylcellulose (CMC)) was 122 % of control and the T/C (dose: 250.0 mg/kg/injection, schedule: Q07DX Z (ip), vehicle: carboxymethylcellulose (CMC)) was 115 % of control. The T/C (dose: 256.0 mg/kg/injection, schedule: Q01DX001 (ip), vehicle: other) was 97 % of control, the T/C (dose: 256.0 mg/kg/injection, schedule: Q04DX003 (ip), vehicle: other) was 106 % of control and the T/C (dose: 256.0 mg/kg/injection, schedule: Q04DX003 (oral), vehicle: other) was 120 % of control. The T/C (dose: 256.0 mg/kg/injection, schedule: Q08DX002 (ip), vehicle: other) was 96 % of control, the T/C (dose: 280.0 mg/kg/injection, schedule: Q01DX Z (sc), vehicle: carboxymethylcellulose (CMC)) was 151 % of control and the T/C (dose: 420.0 mg/kg/injection, schedule: Q01DX Z (sc), vehicle: carboxymethylcellulose (CMC)) was 108 % of control. The T/C (dose: 450.0 mg/kg/injection, schedule: Q01DX010 (ip), vehicle: saline) was 116 % of control, the T/C (dose: 500.0 mg/kg/injection, schedule: Q01DX001 (ip), vehicle: carboxymethylcellulose (CMC)) was 102 % of control and 113 % of control and the T/C (dose: 500.0 mg/kg/injection, schedule: Q01DX Z (im), vehicle: carboxymethylcellulose (CMC)) was 150 % of control. The T/C (dose: 500.0 mg/kg/injection, schedule: Q01DX Z (sc), vehicle: carboxymethylcellulose (CMC)) was 154 % of control, the T/C (dose: 500.0 mg/kg/injection, schedule: Q03DX Z (ip), vehicle: carboxymethylcellulose (CMC)) was 121 % of control and the T/C (dose: 500.0 mg/kg/injection, schedule: Q07DX Z (ip), vehicle: carboxymethylcellulose (CMC)) was 113 % of control. For the same molecule, the T/C (dose: 512.0 mg/kg/injection, schedule: Q01DX001 (ip), vehicle: other) was 104 % of control, the T/C (dose: 512.0 mg/kg/injection, schedule: Q01DX009 (oral), vehicle: other) was 151 % of control and the T/C (dose: 512.0 mg/kg/injection, schedule: Q04DX003 (ip), vehicle: other) was 106 % of control. For the same molecule, the T/C (dose: 512.0 mg/kg/injection, schedule: Q08DX002 (ip), vehicle: other) was 105 % of control, the T/C (dose: 675.0 mg/kg/injection, schedule: Q01DX010 (ip), vehicle: saline) was 93 % of control and the T/C (dose: 1000.0 mg/kg/injection, schedule: Q01DX001 (ip), vehicle: carboxymethylcellulose (CMC)) was 97 % of control and 122 % of control. For the same molecule, the T/C (dose: 1000.0 mg/kg/injection, schedule: Q01DX Z (im), vehicle: carboxymethylcellulose (CMC)) was 158 % of control, the T/C (dose: 1000.0 mg/kg/injection, schedule: Q01DX Z (ip), vehicle: carboxymethylcellulose (CMC)) was 102 % of control and the T/C (dose: 1000.0 mg/kg/injection, schedule: Q01DX Z (oral), vehicle: carboxymethylcellulose (CMC)) was 86 % of control. For the same molecule, the T/C (dose: 1000.0 mg/kg/injection, schedule: Q01DX Z (sc), vehicle: carboxymethylcellulose (CMC)) was 117 % of control, the T/C (dose: 1000.0 mg/kg/injection, schedule: Q07DX Z (ip), vehicle: carboxymethylcellulose (CMC)) was 113 % of control and the T/C (dose: 1014.0 mg/kg/injection, schedule: Q01DX010 (ip), vehicle: saline) was 100 % of control. For the same molecule, the T/C (dose: 1024.0 mg/kg/injection, schedule: Q01DX001 (ip), vehicle: other) was 101 % of control and the T/C (dose: 1024.0 mg/kg/injection, schedule: Q08DX002 (ip), vehicle: other) was 106 % of control.

— PubChem BioAssay AID248 (DTP/NCI, 2004)
